According to ChEMBL document CHEMBL1201862, “PubChem BioAssay data set” (2004):
The source made the active and inactive calls.

Legend:
[1] = target: T1, Calpain-2 catalytic subunit (Sus scrofa, UniProt P43367); experiment: m-calpain protease blockers, concentration series – biochemical, fluorogenic peptide substrate, dose response (AID 1420); format: functional
T1 sequence (P43367 whole entry): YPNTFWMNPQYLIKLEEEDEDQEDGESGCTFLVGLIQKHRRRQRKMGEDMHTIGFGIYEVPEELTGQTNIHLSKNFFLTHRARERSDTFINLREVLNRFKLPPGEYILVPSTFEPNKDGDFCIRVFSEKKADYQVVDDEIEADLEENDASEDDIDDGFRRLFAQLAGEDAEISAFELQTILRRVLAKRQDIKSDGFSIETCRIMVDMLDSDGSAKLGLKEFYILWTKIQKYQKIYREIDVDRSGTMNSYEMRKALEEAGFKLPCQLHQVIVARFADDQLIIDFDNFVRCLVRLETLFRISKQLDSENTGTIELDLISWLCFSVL

[2] = Luminescence Cell-Based Dose Confirmation HTS to Identify Activators of 5'UTR Stem-Loop Driven Alpha-Synuclein mRNA Translation in H4 Neuroglioblastoma Cells. [Related pubchem assays: 1829 (Project Summary), 1814 (Primary HTS)]; format: functional
[3] = Luminescence Cell-Based Dose Response HTS to Identify Activators of Luciferase Translation or Activity in H4 […] Cells. [Related pubchem assays: 1829 (Project Summary), 1814 (Primary HTS)]; format: functional
[4] = system: H4; experiment: Luminescence Cell-Based Dose Response HTS to Identify Activators of 5'UTR Stem-Loop Driven Prion Protein mRNA Translation in H4 Neuroglioblastoma Cells. [Related pubchem assays: 1829 (Project Summary), 1814 (Primary HTS)]; format: functional; details: Homo sapiens
[5] = target: T2, Polyadenylate-binding protein 1 (Homo sapiens, UniProt P11940); experiment: MLLE binding blockers, Cy5 peptide tracer – biochemical, fluorescence polarization, Cy5-PAM2 peptide, secondary, miRNA deadenylation inhibitor project, dose response (AID 602260); format: functional; details: read-out: IC50_Mean
T2 sequence (P11940 whole entry, the tested form may be a part): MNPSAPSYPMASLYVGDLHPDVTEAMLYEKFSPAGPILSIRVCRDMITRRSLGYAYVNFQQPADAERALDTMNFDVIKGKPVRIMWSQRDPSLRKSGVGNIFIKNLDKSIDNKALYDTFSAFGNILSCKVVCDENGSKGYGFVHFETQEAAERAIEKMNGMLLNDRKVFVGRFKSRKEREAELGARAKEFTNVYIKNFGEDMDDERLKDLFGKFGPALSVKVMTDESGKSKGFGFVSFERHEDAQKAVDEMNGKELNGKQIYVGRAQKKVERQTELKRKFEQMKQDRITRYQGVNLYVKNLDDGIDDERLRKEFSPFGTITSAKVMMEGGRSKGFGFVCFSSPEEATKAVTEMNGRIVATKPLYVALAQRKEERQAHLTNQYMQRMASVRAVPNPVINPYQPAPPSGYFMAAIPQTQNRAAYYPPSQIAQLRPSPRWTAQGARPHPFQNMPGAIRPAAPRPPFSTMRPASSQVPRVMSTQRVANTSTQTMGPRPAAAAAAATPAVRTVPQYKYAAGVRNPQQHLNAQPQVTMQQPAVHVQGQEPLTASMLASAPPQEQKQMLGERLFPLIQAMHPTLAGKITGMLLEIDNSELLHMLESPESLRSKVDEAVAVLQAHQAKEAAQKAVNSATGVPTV

[6] = target: T2, Polyadenylate-binding protein 1; experiment: MLLE domain peptide-binding blockers, IC50 – biochemical, fluorescence polarization, FITC-PAM2 peptide, dose response (AID 602259); format: functional; details: read-out: IC50_Mean
[7] = target: Cytochrome P450 2C19 (Homo sapiens, UniProt P33261); experiment: Cytochrome panel assay with activity outcomes. Panel member name: p450-cyp2c19 Compounds with AC50 equal or less than 10 uM are considered active; format: functional; details: read-out: AC50
Sequence of Cytochrome P450 2C19 (P33261 whole entry): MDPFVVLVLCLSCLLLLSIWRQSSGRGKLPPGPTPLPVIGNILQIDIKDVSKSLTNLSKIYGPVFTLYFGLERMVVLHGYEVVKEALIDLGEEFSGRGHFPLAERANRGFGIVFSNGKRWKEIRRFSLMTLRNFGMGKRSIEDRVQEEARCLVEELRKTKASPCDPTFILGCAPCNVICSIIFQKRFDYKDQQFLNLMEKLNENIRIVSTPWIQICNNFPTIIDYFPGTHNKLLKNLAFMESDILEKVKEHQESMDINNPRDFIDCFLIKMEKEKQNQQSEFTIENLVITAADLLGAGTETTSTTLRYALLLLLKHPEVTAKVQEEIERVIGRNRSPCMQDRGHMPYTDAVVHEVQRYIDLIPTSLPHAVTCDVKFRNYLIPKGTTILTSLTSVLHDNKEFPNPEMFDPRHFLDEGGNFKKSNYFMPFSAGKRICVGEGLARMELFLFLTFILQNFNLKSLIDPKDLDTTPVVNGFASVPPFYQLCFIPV

[8] = target: T3, Corticotropin-releasing factor receptor 2/Corticotropin-releasing factor-binding protein (Homo sapiens, UniProt P24387+Q13324); experiment: Dose Response confirmation of uHTS hits for small molecule antagonists of the CRF-binding protein and CRF-R2 receptor complex.; format: functional; details: read-out: IC50_Mean
T3 sequence (Q13324 whole entry): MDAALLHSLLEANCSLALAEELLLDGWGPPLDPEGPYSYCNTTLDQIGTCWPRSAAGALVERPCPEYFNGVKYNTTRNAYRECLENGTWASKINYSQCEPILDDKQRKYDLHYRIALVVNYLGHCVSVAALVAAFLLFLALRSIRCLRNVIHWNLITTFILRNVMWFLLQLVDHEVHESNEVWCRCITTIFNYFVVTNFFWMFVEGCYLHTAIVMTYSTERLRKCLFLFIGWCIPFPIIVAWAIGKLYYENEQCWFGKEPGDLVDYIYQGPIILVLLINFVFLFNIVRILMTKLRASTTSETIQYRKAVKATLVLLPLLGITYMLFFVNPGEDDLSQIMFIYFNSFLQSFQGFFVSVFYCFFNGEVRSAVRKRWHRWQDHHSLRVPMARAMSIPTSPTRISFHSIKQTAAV
T3 sequence (P24387 whole entry): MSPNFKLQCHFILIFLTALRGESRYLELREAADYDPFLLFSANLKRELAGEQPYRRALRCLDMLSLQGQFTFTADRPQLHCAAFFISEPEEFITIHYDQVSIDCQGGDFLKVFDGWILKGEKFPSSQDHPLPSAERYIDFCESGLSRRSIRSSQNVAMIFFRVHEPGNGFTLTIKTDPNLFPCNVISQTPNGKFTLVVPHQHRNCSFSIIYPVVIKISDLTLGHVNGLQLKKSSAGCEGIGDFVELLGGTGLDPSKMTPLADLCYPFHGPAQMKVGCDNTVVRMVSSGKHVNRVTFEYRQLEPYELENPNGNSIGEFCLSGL

[9] = target: T3, Corticotropin-releasing factor receptor 2/Corticotropin-releasing factor-binding protein; experiment: activators of CRF receptor 2 with binding protein – uHTS hits, confirmation (AID 602473); format: functional; details: read-out: EC50_Mean
[10] = target: Cytochrome P450 2C9 (Homo sapiens, UniProt P11712)
Sequence of Cytochrome P450 2C9 (P11712 whole entry): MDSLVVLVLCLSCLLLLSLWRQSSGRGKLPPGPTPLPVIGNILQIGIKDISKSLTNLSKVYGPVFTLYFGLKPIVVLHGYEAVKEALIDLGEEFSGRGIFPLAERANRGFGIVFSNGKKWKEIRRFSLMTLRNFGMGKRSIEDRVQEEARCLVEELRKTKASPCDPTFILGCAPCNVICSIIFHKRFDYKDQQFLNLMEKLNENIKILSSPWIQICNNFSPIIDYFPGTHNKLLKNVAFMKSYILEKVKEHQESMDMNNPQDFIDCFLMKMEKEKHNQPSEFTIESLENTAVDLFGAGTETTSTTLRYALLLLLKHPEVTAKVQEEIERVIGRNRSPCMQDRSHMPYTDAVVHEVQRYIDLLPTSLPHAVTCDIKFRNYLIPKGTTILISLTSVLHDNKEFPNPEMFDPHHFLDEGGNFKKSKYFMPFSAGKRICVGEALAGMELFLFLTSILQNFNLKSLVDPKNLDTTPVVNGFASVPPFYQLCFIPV

[11] = system: Streptococcus sp. 'group A'; experiment: Streptococcus pyogenes SK(-)GAS viability under kanamycin – luminescence, BacTiterGlo, confirmation, counter-screen for streptokinase expression inhibitor project, dose response (AID 1900); format: functional, organism-based
[12] = target: T4, Heat shock factor protein 1 (Mus musculus, UniProt P38532); experiment: decrease of HSF1-responsive luciferase luminescence – cell-based, NIH3T3, dose retest, confirmation (AID 2382); format: functional;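 also: NIH3T3 fibroblasts with HSF1-driven luciferase reporter stressed by proteasome inhibitor MG132; luminescence from HSF1-driven luciferase expression after 8 hours of MG132 stress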
T4 sequence (P38532 whole entry): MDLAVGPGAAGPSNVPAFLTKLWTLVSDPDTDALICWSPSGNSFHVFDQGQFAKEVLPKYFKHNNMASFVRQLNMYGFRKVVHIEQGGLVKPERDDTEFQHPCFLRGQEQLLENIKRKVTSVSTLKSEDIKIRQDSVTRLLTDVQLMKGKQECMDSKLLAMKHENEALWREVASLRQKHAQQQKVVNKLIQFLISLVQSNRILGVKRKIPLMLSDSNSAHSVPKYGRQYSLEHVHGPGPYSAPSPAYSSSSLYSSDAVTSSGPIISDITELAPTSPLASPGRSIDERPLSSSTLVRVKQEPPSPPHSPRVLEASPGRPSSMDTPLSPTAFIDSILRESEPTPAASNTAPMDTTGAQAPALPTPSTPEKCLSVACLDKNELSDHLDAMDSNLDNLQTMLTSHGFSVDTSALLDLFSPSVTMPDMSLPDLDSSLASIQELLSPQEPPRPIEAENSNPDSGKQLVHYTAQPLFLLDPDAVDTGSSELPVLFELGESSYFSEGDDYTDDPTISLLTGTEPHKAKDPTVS

[13] = target: T5, Streptokinase A (Streptococcus pyogenes serotype M1, UniProt P10520); experiment: viability-normalized secreted streptokinase activity reduction – plasminogen activation absorbance, OD405, dose response (AID 1914); format: functional, Streptococcus pyogenes M1 GAS;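 also: secreted streptokinase activity via plasminogen activation per viability signal from cell pellet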
T5 sequence (P10520 whole entry): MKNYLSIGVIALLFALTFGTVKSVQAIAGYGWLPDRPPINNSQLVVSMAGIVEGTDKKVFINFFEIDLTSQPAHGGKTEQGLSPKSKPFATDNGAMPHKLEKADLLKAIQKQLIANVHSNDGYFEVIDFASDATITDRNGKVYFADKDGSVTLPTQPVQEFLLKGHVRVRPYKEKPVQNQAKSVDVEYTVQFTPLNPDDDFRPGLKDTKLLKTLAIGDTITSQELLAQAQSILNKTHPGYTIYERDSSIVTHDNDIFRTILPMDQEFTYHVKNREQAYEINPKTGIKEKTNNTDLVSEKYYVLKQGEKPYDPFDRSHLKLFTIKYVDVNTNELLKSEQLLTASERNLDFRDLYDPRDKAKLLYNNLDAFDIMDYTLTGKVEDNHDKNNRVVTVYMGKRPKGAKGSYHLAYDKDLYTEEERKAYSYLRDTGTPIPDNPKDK

[14] = Trypanosoma cruzi growth suppression in host cells – NIH3T3 host cells, beta-gal luminescence, confirmation (AID 2044); format: functional, cell-based;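 also: intracellular parasites grown in NIH/3T3 mouse fibroblasts as host cells; luminescent beta-galactosidase reporter signal from transgenic T. cruzi replicating inside host cells; inhibitors lower the luminescence signal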
[15] = NIH3T3 cell viability loss – ATP luminescence, mouse fibroblasts, counter-screen, dose response (AID 2010); format: functional, cell-based;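 also: cells exposed to compound for about 90 hours before reading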
[16] = system: Streptococcus; experiment: GAS UMAA2166 growth inhibition – luminescence, BacTiterGlo, counter-screen for streptokinase expression inhibitor project, dose response (AID 1915); format: functional, organism-based;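 also: potency for reduction of bacterial viability or growth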
[17] = reduction of Shn3 3'UTR-driven luciferase in osteoblasts – cell-based, Clone20 osteoblasts, firefly luciferase, cherry-picked, dose response (AID 624132); format: functional;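 also: firefly luciferase luminescence from reporter carrying the Shn3 3'UTR in osteoblasts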
[18] = loss of viability in HepG2 cells – cell-based, CellTiter-Glo, cherry-picked, cytotoxicity control for Shn3 inhibitor project, dose response (AID 624134); format: functional
[19] = non-specific 3'UTR reporter inhibition in Clone20-Shn3RL – cell-based, Renilla luciferase, cherry-picked, counter-screen for Shn3 inhibitor project, dose response (AID 624133); format: functional
[20] = target: Paired box protein Pax-8 (Homo sapiens, UniProt Q06710); experiment: PAX8 transcriptional activity inhibition in RMG-I – RMG-I cells, luciferase, cherry-pick, dose response (AID 687027); format: functional, cell-based;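 also: luciferase reporter driven by Pax8 target thyroperoxidase promoter measured by SteadyGlo luminescence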
Sequence of Paired box protein Pax-8 (Q06710 whole entry): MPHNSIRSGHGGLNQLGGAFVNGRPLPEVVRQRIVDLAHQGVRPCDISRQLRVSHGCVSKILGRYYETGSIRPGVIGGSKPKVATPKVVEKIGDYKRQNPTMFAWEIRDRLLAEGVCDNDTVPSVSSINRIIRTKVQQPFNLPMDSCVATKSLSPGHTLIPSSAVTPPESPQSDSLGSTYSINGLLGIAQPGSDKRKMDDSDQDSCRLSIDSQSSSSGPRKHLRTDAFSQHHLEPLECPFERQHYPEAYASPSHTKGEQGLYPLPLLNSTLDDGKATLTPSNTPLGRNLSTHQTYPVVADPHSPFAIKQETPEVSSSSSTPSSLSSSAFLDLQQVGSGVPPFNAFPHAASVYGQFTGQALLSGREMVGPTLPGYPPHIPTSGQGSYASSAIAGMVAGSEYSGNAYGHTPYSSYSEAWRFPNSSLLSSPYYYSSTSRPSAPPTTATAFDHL

Row | Compound | EC50 [2] | EC50 [3] | EC50 [4] | IC50 [5] | IC50 [6] | also measured
1 | CCn1c(SCc2ccc(F)cc2)nnc1C1CCN(S(=O)(=O)c2ccc(OC)cc2)CC1 | – | – | – | – | – | IC50 [1]: 26.2 µM (not active)
2 | COc1ccc(NC2CC(=O)N(C(C)C)C2=O)cc1 (stereo not given) | 5.94 µM (active) | 18.8 µM (active) | > 120 µM (not active) | – | – | –
3 | COc1ccc(OC)c(NC(=O)c2ccc3c(=O)n(CCc4ccccc4)c(=S)[nH]c3c2)c1 | – | – | – | – | – | IC50 [1]: 13 µM (not active)
4 | COc1ccc(Cc2nnc(NC(=O)C3CCCO3)s2)cc1OC (stereo not given) | – | – | – | > 66 µM (inactive) | > 66 µM (inactive) | –
5 | CCOC(=O)Cc1csc(NC(=S)NC(=O)c2ccccc2Br)n1 | – | – | – | > 66 µM (inactive) | > 66 µM (inactive) | –
6 | Cc1sc(NC(=O)CCCC(=O)O)c(C(N)=O)c1-c1ccccc1 | – | – | – | > 66 µM (inactive) | > 66 µM (inactive) | –
7 | Cc1cccc(NC(=O)c2cc(-c3ccc(C)s3)nc3ccccc23)n1 | > 120 µM (not active) | > 60 µM (not active) | 9.88 µM (active) | – | – | –
8 | COc1ccc(CNC(=O)c2ccc(C(C)C)cc2)cc1 | 53.5 µM (active) | 0.16 µM (inconclusive) | 80.9 µM (active) | – | – | –
9 | Fc1ccccc1C1CCN(Cc2nc(CC3CC3)no2)C1 (stereo not given) | 15 µM (active) | 17.2 µM (active) | 15.4 µM (active) | – | – | –
10 | COC(=O)c1cn(NC(=O)c2ccc(F)cc2)c(=O)c2ccccc12 | – | – | – | – | – | AC50 [7]: 17.8 µM (inconclusive); IC50 [8]: > 47.1 µM (inactive); EC50 [9]: > 53 µM (inactive); AC50 [10]: 39.8 µM (inconclusive)
11 | COc1cccc(C(=O)Nc2nc(O)c3c(n2)CCCC3)c1 | 14.5 µM (active) | > 120 µM (not active) | > 120 µM (not active) | – | – | –
12 | COC(=O)CCCC1=CC2=C(c3ccccc3)C(=O)C(C)(OC(=O)C3CCCC3)C(=O)C2=CN1CCN1CCOCC1 (stereo not given) | – | – | – | > 66 µM (inactive) | > 66 µM (inactive) | –
13 | Cc1ccc(C)c(N2CCN(C(=O)CCCCCn3c(=S)[nH]c4ccc(N5CCOCC5)cc4c3=O)CC2)c1 | – | – | – | – | – | EC50 [11]: 6.52 µM (active); EC50 [12]: 5.28 µM (active); EC50 [13]: > 150 µM (not active); EC50 [14]: 0.348 µM (active); EC50 [15]: 16.5 µM (active); EC50 [16]: 140 µM (active); AC50 [17]: 1.99 µM (active); AC50 [18]: 5.02 µM (active); AC50 [19]: 3.48 µM (active); AC50 [20]: 5.97 µM (active)
14 | Cc1cc2cc(CNC(=O)c3ccc(S(=O)(=O)N4CCOCC4)cc3)ccc2[nH]1 | – | – | – | > 66 µM (inactive) | > 66 µM (inactive) | –
15 | Cc1ccc(-n2ncc(Cl)c2C(=O)NCc2ccccc2)cc1 | 3.28 µM (active) | 4.06 µM (active) | 5.76 µM (active) | – | – | –
16 | O=C(NC(=S)Nc1ccc(S(=O)(=O)N2CCCCC2)cc1)c1cccs1 | – | – | – | > 66 µM (inactive) | > 66 µM (inactive) | –
17 | Cc1cc(C)nc(Nc2nc(=O)c3ccccc3s2)n1 | – | – | – | > 66 µM (inactive) | > 66 µM (inactive) | –
18 | COC(=O)c1cn(C(=O)/C=C/c2ccc(OC)c(OC)c2)c2ccccc12 | 20.2 µM (active) | 32.1 µM (active) | > 120 µM (not active) | – | – | –
19 | O=C(NC(=S)Nc1ccc(Cc2ccncc2)cc1)c1ccccc1Cl | – | – | – | > 66 µM (inactive) | > 66 µM (inactive) | –
20 | COc1ccc2oc(-c3ccncc3)cc(=O)c2c1 | – | – | – | > 66 µM (inactive) | > 66 µM (inactive) | –
21 | CC(C)C(NC(=O)c1ccc(Cl)cc1Cl)C(=O)N1CCN(S(=O)(=O)c2ccccc2)CC1 (stereo not given) | – | – | – | – | – | AC50 [17]: 48.5 µM (active); AC50 [19]: 21 µM (active)
22 | CCCCOc1ccc(N2C(=O)C(C)CNC2=S)cc1 (stereo not given) | – | – | – | > 66 µM (inactive) | 41.1 µM (inactive) | –
23 | Cc1oc(/N=C/c2ccc3c(c2)OCO3)c(C#N)c1C | > 120 µM (not active) | 38.1 µM (active) | > 120 µM (not active) | – | – | –
24 | Cc1nc2ccccc2c(=O)n1/N=C/c1cn(-c2ccccc2)nc1-c1cccs1 | 5.11 µM (active) | 14.8 µM (active) | 6.75 µM (active) | – | – | –
